From PubChem BioAssay (NCI)
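How tested: cells in 96-well plates exposed to compound for 48 hours at five concentrations. TGI denotes the concentration required for complete inhibition of growth.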

Experiments:
Assay in all cases: growth of human tumour cells (NCI), 48 h
UO-31 renal = test system: UO-31 renal
HOP-62 NSCLC = test system: HOP-62 NSCLC
HCT-116 colon = test system: HCT-116 colon
OVCAR-3 ovarian = test system: OVCAR-3 ovarian
HT29 colon = test system: HT29 colon
NCI/ADR-RES ovarian = test system: NCI/ADR-RES ovarian
HL-60(TB) leukemia = test system: HL-60(TB) leukemia
RXF-631 renal = test system: RXF-631 renal
KM20L2 colon = test system: KM20L2 colon
SK-OV-3 ovarian = test system: SK-OV-3 ovarian
LXFL 529 NSCLC = test system: LXFL 529 NSCLC
NCI-H460 lung = test system: NCI-H460 lung
M14 melanoma = test system: M14 melanoma
LOX IMVI melanoma = test system: LOX IMVI melanoma
SN12C renal = test system: SN12C renal
K-562 leukemia = test system: K-562 leukemia
TK-10 renal = test system: TK-10 renal
MDA-N = test system: MDA-N
SNB-75 CNS = test system: SNB-75 CNS
DMS 273 small cell lung = test system: DMS 273 small cell lung
BT-549 breast = test system: BT-549 breast
U251 CNS = test system: U251 CNS
SK-MEL-2 melanoma = test system: SK-MEL-2 melanoma
HCT-15 colon = test system: HCT-15 colon
SNB-19 CNS = test system: SNB-19 CNS
RXF 393 renal = test system: RXF 393 renal
786-0 renal = test system: 786-0 renal
OVCAR-5 ovarian = test system: OVCAR-5 ovarian
UACC-62 melanoma = test system: UACC-62 melanoma
SF-295 CNS = test system: SF-295 CNS
MDA-MB-231 breast = test system: MDA-MB-231 breast
NCI-H226 lung = test system: NCI-H226 lung
OVCAR-4 ovarian = test system: OVCAR-4 ovarian
SK-MEL-28 melanoma = test system: SK-MEL-28 melanoma
SNB-78 CNS = test system: SNB-78 CNS
COLO 205 colon = test system: COLO 205 colon
UACC-257 melanoma = test system: UACC-257 melanoma
MDA-MB-435 = test system: MDA-MB-435
A549 NSCLC = test system: A549 NSCLC
M19-MEL melanoma = test system: M19-MEL melanoma
IGROV1 ovarian = test system: IGROV1 ovarian
CCRF-CEM leukemia = test system: CCRF-CEM leukemia
MCF7 breast = test system: MCF7 breast
A498 renal = test system: A498 renal
NCI-H522 lung = test system: NCI-H522 lung
CAKI-1 renal = test system: CAKI-1 renal
SF-268 CNS = test system: SF-268 CNS
KM12 colon = test system: KM12 colon
SF-539 CNS = test system: SF-539 CNS
SK-MEL-5 melanoma = test system: SK-MEL-5 melanoma
DMS 114 small cell lung = test system: DMS 114 small cell lung
OVCAR-8 ovarian = test system: OVCAR-8 ovarian
DU-145 prostate = test system: DU-145 prostate
HOP-18 NSCLC = test system: HOP-18 NSCLC
EKVX NSCLC = test system: EKVX NSCLC
NCI-H23 lung = test system: NCI-H23 lung
DLD-1 colon = test system: DLD-1 colon
ACHN renal = test system: ACHN renal
SW-620 colon = test system: SW-620 colon
T-47D breast = test system: T-47D breast
MOLT-4 leukemia = test system: MOLT-4 leukemia
PC-3 prostate = test system: PC-3 prostate
XF 498 CNS = test system: XF 498 CNS
MALME-3M melanoma = test system: MALME-3M melanoma
SR leukemia = test system: SR leukemia
RPMI-8226 leukemia = test system: RPMI-8226 leukemia
HS 578T breast = test system: HS 578T breast
HCC-2998 colon = test system: HCC-2998 colon
HOP-92 NSCLC = test system: HOP-92 NSCLC

C/C1=C/C2OC(=O)C3(C)C2C(CC2(C)OC1=CC2=O)OC3(O)C(C)C (stereo unspecified)
TGI (UO-31 renal): > 100 µM
TGI (HOP-62 NSCLC): > 100 µM
TGI (HCT-116 colon): > 100 µM
TGI (OVCAR-3 ovarian): > 64.9 µM
TGI (HT29 colon): > 66.9 µM
TGI (NCI/ADR-RES ovarian): > 100 µM
TGI (HL-60(TB) leukemia): 54.9 µM
TGI (RXF-631 renal): > 100 µM
TGI (KM20L2 colon): 43.2 µM
TGI (SK-OV-3 ovarian): > 100 µM
TGI (LXFL 529 NSCLC): 93.1 µM
TGI (NCI-H460 lung): > 100 µM
TGI (M14 melanoma): > 100 µM
TGI (LOX IMVI melanoma): > 100 µM
TGI (SN12C renal): > 71.4 µM
TGI (K-562 leukemia): > 100 µM
TGI (TK-10 renal): > 100 µM
TGI (MDA-N): > 100 µM
TGI (SNB-75 CNS): > 100 µM
TGI (DMS 273 small cell lung): > 100 µM
TGI (BT-549 breast): 24.9 µM
TGI (U251 CNS): > 54 µM
TGI (SK-MEL-2 melanoma): > 84.6 µM
TGI (HCT-15 colon): > 63.1 µM
TGI (SNB-19 CNS): > 74.4 µM
TGI (RXF 393 renal): > 70.5 µM
TGI (786-0 renal): > 69.3 µM
TGI (OVCAR-5 ovarian): > 79.3 µM
TGI (UACC-62 melanoma): 56.4 µM
TGI (SF-295 CNS): > 78.7 µM
TGI (MDA-MB-231 breast): > 100 µM
TGI (NCI-H226 lung): > 78.6 µM
TGI (OVCAR-4 ovarian): > 55.3 µM
TGI (SK-MEL-28 melanoma): > 100 µM
TGI (SNB-78 CNS): > 100 µM
TGI (COLO 205 colon): > 73 µM
TGI (UACC-257 melanoma): > 75.1 µM
TGI (MDA-MB-435): > 100 µM
TGI (A549 NSCLC): > 100 µM
TGI (M19-MEL melanoma): > 100 µM
TGI (IGROV1 ovarian): > 84.5 µM
TGI (CCRF-CEM leukemia): > 73.4 µM
TGI (MCF7 breast): > 100 µM
TGI (A498 renal): > 100 µM
TGI (NCI-H522 lung): 35.7 µM
TGI (CAKI-1 renal): 62 µM
TGI (SF-268 CNS): > 65.9 µM
TGI (KM12 colon): > 60.3 µM
TGI (SF-539 CNS): > 89.6 µM
TGI (SK-MEL-5 melanoma): 55 µM
TGI (DMS 114 small cell lung): 29.6 µM
TGI (OVCAR-8 ovarian): > 62.4 µM
TGI (DU-145 prostate): > 100 µM
TGI (HOP-18 NSCLC): > 100 µM
TGI (EKVX NSCLC): > 100 µM
TGI (NCI-H23 lung): > 54.1 µM
TGI (DLD-1 colon): 87.8 µM
TGI (ACHN renal): > 100 µM
TGI (SW-620 colon): 67.4 µM
TGI (T-47D breast): > 100 µM
TGI (MOLT-4 leukemia): > 100 µM
TGI (PC-3 prostate): > 100 µM
TGI (XF 498 CNS): 41 µM
TGI (MALME-3M melanoma): 77.8 µM
TGI (SR leukemia): 65.7 µM
TGI (RPMI-8226 leukemia): > 86.1 µM
TGI (HS 578T breast): > 100 µM
TGI (HCC-2998 colon): 48.8 µM

CCOC1c2cc(OC)c(OC)cc2-c2ccc3ccccc3c2N1C (stereo unspecified)
TGI (UO-31 renal): > 77.8 µM
TGI (HOP-62 NSCLC): 42.6 µM
TGI (HCT-116 colon): 17.7 µM
TGI (OVCAR-3 ovarian): 50.9 µM
TGI (HT29 colon): 46.6 µM
TGI (NCI/ADR-RES ovarian): 96.5 µM
TGI (HOP-92 NSCLC): 58.4 µM
TGI (HL-60(TB) leukemia): > 96.5 µM
TGI (RXF-631 renal): > 56.8 µM
TGI (KM20L2 colon): > 90.5 µM
TGI (SK-OV-3 ovarian): 59 µM
TGI (LXFL 529 NSCLC): 24.2 µM
TGI (NCI-H460 lung): 35.5 µM
TGI (M14 melanoma): 40.2 µM
TGI (LOX IMVI melanoma): 41.5 µM
TGI (SN12C renal): 46.5 µM
TGI (K-562 leukemia): > 100 µM
TGI (TK-10 renal): 78.3 µM
TGI (MDA-N): 28.6 µM
TGI (SNB-75 CNS): 34.9 µM
TGI (DMS 273 small cell lung): 20.2 µM
TGI (BT-549 breast): 28.6 µM
TGI (U251 CNS): 33 µM
TGI (SK-MEL-2 melanoma): 28.6 µM
TGI (HCT-15 colon): > 83 µM
TGI (SNB-19 CNS): 54.7 µM
TGI (RXF 393 renal): 58.5 µM
TGI (786-0 renal): > 64.6 µM
TGI (OVCAR-5 ovarian): > 80.2 µM
TGI (UACC-62 melanoma): 26.8 µM
TGI (SF-295 CNS): > 75.9 µM
TGI (MDA-MB-231 breast): 36.6 µM
TGI (NCI-H226 lung): 66.9 µM
TGI (OVCAR-4 ovarian): 54.5 µM
TGI (SK-MEL-28 melanoma): 28.7 µM
TGI (SNB-78 CNS): > 100 µM
TGI (COLO 205 colon): 22.8 µM
TGI (UACC-257 melanoma): 42.1 µM
TGI (MDA-MB-435): 36.7 µM
TGI (A549 NSCLC): 52.7 µM
TGI (M19-MEL melanoma): 25.9 µM
TGI (IGROV1 ovarian): 63.3 µM
TGI (CCRF-CEM leukemia): > 100 µM
TGI (MCF7 breast): 51 µM
TGI (NCI-H522 lung): 18.3 µM
TGI (CAKI-1 renal): > 79.7 µM
TGI (SF-268 CNS): 23.6 µM
TGI (KM12 colon): 21.1 µM
TGI (SF-539 CNS): 55.6 µM
TGI (SK-MEL-5 melanoma): 30.8 µM
TGI (DMS 114 small cell lung): 24.6 µM
TGI (OVCAR-8 ovarian): 31.6 µM
TGI (DU-145 prostate): 52.4 µM
TGI (HOP-18 NSCLC): > 100 µM
TGI (EKVX NSCLC): 56.3 µM
TGI (NCI-H23 lung): 28.1 µM
TGI (DLD-1 colon): > 75.1 µM
TGI (ACHN renal): > 87.5 µM
TGI (SW-620 colon): 49.4 µM
TGI (T-47D breast): 67.1 µM
TGI (MOLT-4 leukemia): > 82.7 µM
TGI (PC-3 prostate): 21.6 µM
TGI (XF 498 CNS): 31.8 µM
TGI (MALME-3M melanoma): 24.1 µM
TGI (SR leukemia): > 100 µM
TGI (RPMI-8226 leukemia): > 88.7 µM
TGI (HS 578T breast): 34.1 µM
TGI (HCC-2998 colon): 31.3 µM
